Assays:
VP16CfEcR = test: Transactivation of reporter genes through switch 1.7 in CHO cells; type: cell-based, Choristoneura fumiferana; conditions: switch 1.7 VP16CfEcR, pEcRELuc
Protocol: Six ecdysone response elements (“EcRE”; SEQ ID NO: 59) from the hsp27 gene were placed upstream of the promoter and a luciferase gene (SEQ ID NO: 57). This switch most probably uses endogenous RXR.
(§1) The cells were harvested and reporter activity was assayed.
(§2) Cells were harvested 24-48 hr after adding ligands. […] Twenty μl of lysate was assayed.

CfVgRXR + MmRXR = test: Transactivation of reporter genes through switch 1.9 in CHO cells; type: cell-based, Choristoneura fumiferana; conditions: switch 1.9 CfVgRXR + MmRXR, pIND(SP1)LacZ
Protocol: This example was prepared in the same way as switch 1.8 except DinEcR was replaced with a truncated CfEcR comprising a partial A/B domain and the complete CDEF domains [SEQ ID NO: 62 (polynucleotide) and SEQ ID NO: 63 (polypeptide)].
as §1, §2

CfVgRXR = test: Transactivation of reporter genes through switch 1.10 in CHO cells; type: cell-based, Choristoneura fumiferana; conditions: switch 1.10 CfVgRXR, pIND(SP1)LacZ
Protocol: This example was prepared in the same way as switch 1.9 except MmRXR (SEQ ID NO: 53) was deleted.
as §1, §2

GAL4RXR + VP16DmEcR = biological target: T1, GAL4RXR + VP16DmEcR (Drosophila melanogaster, UniProt P34021); test: Transactivation of reporter genes through switch 1.4 in 3T3 cells; type: cell-based; conditions: switch 1.4 GAL4RXR + VP16DmEcR, pGAL4RELuc
T1 sequence (P34021 254-878): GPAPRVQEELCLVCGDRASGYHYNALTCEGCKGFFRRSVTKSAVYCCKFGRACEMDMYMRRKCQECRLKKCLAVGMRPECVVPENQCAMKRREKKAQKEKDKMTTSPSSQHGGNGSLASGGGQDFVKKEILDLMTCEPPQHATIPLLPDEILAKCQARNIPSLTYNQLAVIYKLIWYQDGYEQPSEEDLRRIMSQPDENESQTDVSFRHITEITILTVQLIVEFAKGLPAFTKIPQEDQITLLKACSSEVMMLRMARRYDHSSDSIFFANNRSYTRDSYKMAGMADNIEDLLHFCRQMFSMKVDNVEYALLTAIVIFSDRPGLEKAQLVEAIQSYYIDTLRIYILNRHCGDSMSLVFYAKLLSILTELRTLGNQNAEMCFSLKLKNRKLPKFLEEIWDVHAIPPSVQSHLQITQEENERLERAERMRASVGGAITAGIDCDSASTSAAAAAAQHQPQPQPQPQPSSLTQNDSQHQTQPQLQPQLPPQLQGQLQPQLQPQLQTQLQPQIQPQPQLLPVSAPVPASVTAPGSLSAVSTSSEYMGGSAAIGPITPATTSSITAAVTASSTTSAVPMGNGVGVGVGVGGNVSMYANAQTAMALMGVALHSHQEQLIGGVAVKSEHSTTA
T1 sequence (P28700 206-467 partner limits assumed): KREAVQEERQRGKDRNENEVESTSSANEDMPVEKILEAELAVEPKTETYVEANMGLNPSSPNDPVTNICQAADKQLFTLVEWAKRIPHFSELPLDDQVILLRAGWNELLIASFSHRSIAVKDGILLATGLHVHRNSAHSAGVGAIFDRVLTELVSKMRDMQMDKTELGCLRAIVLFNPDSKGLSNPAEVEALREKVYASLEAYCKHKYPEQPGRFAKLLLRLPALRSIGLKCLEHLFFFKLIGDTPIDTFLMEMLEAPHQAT
Protocol: This construct was prepared in the same way as switch 1.3 except CfEcRCDEF was replaced with DmEcRCDEF (SEQ ID NO: 6).
(§3) The cells were plated when they reached 50% confluency.
as §2

GAL4USP + VP16CfEcR = test: Transactivation of reporter genes through switch 1.5 in 3T3 cells; type: cell-based, Choristoneura fumiferana; conditions: switch 1.5 GAL4USP + VP16CfEcR, pGAL4RELuc
Protocol: This construct was prepared in the same way as switch 1.3 except MmRXRDEF was replaced with CfUSPDEF (SEQ ID NO: 58).
as §3, §2

DmVgRXR + MmRXR = biological target: T2, DmVgRXR + MmRXR (Drosophila melanogaster, UniProt P34021, E282G/G283S/G286V); test: Transactivation of reporter genes through switch 1.8 in 3T3 cells; type: cell-based; conditions: switch 1.8 DmVgRXR + MmRXR, pIND(SP1)LacZ
T2 construct: host or cells: CHO, NIH3T3, 293 or CV1 cells (one cell line per assay)
From the text: This system was purchased from Invitrogen Corp., Carlsbad, Calif. It comprises a Drosophila melanogaster EcR (“DmEcR”) with a modified DNABD fused to VP16AD and placed under the control of a CMV promoter (SEQ ID NO: 60). Full length MmRXR (SEQ ID NO: 53) was placed under the control of the RSV promoter (SEQ ID NO: 61). The reporter, pIND(SP1)LacZ, contains five copies of a modified ecdysone response element (“EcRE”, E/GRE), three copies of an SP1 enhancer, and a minimal heat shock promoter, all of which were placed upstream to the LacZ reporter gene.
as §3, §2

T2 sequence (P34021 whole entry E282G/G283S/G286V): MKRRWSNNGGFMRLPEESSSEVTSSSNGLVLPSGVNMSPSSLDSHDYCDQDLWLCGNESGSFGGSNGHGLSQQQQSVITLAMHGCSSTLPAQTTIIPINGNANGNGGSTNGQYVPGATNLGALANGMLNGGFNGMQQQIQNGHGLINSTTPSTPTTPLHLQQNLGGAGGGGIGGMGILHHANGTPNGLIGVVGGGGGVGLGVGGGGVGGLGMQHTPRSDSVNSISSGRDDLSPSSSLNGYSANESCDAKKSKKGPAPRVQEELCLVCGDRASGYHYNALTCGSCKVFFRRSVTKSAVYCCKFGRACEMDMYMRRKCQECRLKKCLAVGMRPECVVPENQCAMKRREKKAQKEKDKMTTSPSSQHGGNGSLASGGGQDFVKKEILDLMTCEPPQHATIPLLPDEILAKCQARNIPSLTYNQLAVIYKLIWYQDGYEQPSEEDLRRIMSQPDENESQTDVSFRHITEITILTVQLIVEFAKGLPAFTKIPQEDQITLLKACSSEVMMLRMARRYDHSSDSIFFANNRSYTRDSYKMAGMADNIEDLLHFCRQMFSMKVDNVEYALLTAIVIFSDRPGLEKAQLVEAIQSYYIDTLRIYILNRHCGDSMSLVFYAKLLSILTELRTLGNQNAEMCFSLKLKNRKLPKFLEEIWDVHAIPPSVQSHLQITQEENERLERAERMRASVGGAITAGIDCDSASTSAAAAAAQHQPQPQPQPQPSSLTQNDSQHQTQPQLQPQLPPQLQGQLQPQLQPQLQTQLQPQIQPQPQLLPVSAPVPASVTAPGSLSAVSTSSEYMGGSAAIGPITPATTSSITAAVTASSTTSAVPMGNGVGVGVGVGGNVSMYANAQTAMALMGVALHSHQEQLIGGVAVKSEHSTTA
T2 sequence (P28700 whole entry, further chain): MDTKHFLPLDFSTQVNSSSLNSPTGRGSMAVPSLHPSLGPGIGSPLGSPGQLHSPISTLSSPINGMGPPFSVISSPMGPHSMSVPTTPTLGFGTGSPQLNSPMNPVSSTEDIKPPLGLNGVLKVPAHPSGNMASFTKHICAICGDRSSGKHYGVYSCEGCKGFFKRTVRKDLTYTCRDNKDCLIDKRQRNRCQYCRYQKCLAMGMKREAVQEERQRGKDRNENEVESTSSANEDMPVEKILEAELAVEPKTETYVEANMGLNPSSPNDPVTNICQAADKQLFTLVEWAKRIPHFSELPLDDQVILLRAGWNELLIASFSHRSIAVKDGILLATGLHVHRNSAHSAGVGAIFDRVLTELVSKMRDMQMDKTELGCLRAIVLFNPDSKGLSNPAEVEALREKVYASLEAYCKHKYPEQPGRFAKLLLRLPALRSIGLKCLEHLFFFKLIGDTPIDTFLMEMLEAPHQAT

SMILES: CCc1c(OC)cccc1C(=O)NN(C(=O)c1cc(C)cc(C)c1)C(C)(C)C [N-(2-ethyl-3-methoxybenzoyl)-N′-(3,5-dimethylbenzoyl)-N′-tert-butylhydrazine]
- Mean Fold Activation with 50 μM N-(2-ethyl-3-methoxybenzoyl)-N′-(3,5-dimethylbenzoyl)-N′-t-butylhydrazine (VP16CfEcR): 36 fold
- Mean Fold Activation with 50 μM N-(2-ethyl-3-methoxybenzoyl)-N′-(3,5-dimethylbenzoyl)-N′-t-butylhydrazine (CfVgRXR + MmRXR): 27 fold
- Mean Fold Activation with 50 μM N-(2-ethyl-3-methoxybenzoyl)-N′-(3,5-dimethylbenzoyl)-N′-t-butylhydrazine (CfVgRXR): 29 fold
- Mean Fold Activation Through N-(2-ethyl-3-methoxybenzoyl)-N′-(3,5-dimethylbenzoyl)-N′-t-butylhydrazine (GAL4RXR + VP16DmEcR): 269 fold
- Mean Fold Activation Through N-(2-ethyl-3-methoxybenzoyl)-N′-(3,5-dimethylbenzoyl)-N′-t-butylhydrazine (GAL4USP + VP16CfEcR): 3 fold
- Mean Fold Activation Through N-(2-ethyl-3-methoxybenzoyl)-N′-(3,5-dimethylbenzoyl)-N′-t-butylhydrazine (DmVgRXR + MmRXR): 21 fold

— US8822754B2, “Ecdysone receptor-based inducible gene expression system” (Intrexon Corporation, priority 2000, dated 2014)
